# Test results reported in patent publication US6046190A, “Hydroxyethylamino sulphonamides useful as retroviral protease inhibitors” (G.D. Searle & Co., priority 1996, dated 2000).
# Where two headings read alike, the source gives them in different places.
# How the values were obtained:
# [1] = Intrinsic toxicity of test compound in uninfected CEM cells (MTT); conditions: human
# Text: (§1) Methods, 20, 309-321 (1988).
# (§2) [table 42: the next 8 blocks are its lines as printed, fixed-width]
# [2] = system: HIV-1 in CEM cells; assay: HIV inhibition assay of acutely infected CEM cells (tetrazolium/MTT colorimetric), antiviral efficacy; format: cell-based; conditions: Human immunodeficiency virus 1, CCRF-CEM, 168 h
# Text: as §1, §2
# [3] = molecular target: T1, HIV protease (Human immunodeficiency virus type 1 group M subtype B, UniProt P04585); assay: biochemical; format: biochemical
# T1 construct: HIV protease is diluted in the assay buffer to a final enzyme concentration of 12.3 nanomolar, based on a molecular weight of 10,780
# Protocol: The enzyme method is described below. […] The positive control is MVT-101 (Miller, M. et al, Science, 246, 1149 (1989)]. The assay conditions are as follows:
# 20 mM sodium phosphate, pH 6.4
# The above described substrate is dissolved in DMSO, then diluted 10 fold in assay buffer. Final substrate concentration in the assay is 80 μM.
# The final concentration of DMSO is 14% and the final concentration of glycerol is 18%. The test compound is dissolved in DMSO and diluted in DMSO to 10× the test concentration; 10 μl of the enzyme preparation is added, the materials mixed and then the mixture is incubated at ambient temperature for 15 minutes. The enzyme reaction is initiated by the addition of 40μl of substrate. The increase in fluorescence is monitored at 4 time points (0, 8, 16 and 24 minutes) at ambient temperature. Each assay is carried out in duplicate wells.
# [4] = Table 21, CEM cells, 1000 TCID50 HIV-1, 7 days, read-out: EC50
# [5] = Table 21, above-described enzyme assay
# [6] = Table 19B, calculated IC50, enzyme 12.3 nanomolar, substrate 80 μM, pH 6.4
# [7] = Table 20, calculated IC50, enzyme 12.3 nanomolar, substrate 80 μM, pH 6.4
smiles,measurement,setting,value
CC(C)CCN(C[C@@H](O)[C@H](Cc1ccccc1)NC(=O)OCc1ccccc1)S(=O)(=O)c1ccccc1 [Example 1],CC50 at 168 h,[1],27 nM
same,EC50,[2],55 nM
CC(C)CCN(C[C@@H](O)[C@H](Cc1ccccc1)NC(=O)[C@H](CC(N)=O)NC(=O)c1ccc2ccccc2n1)S(=O)(=O)c1ccccc1 [Example 2],CC50 at 168 h,[1],203 nM
same,EC50,[2]; [4],5 nM
COc1ccc(COC(=O)NC[C@@H](C)C(=O)N[C@@H](Cc2ccccc2)[C@H](O)CN(CCC(C)C)S(=O)(=O)c2ccccc2)cc1 [Example 3],CC50 at 168 h,[1],780 nM
same,EC50,[2],11 nM
CC(C)CCN(C[C@@H](O)[C@H](Cc1ccccc1)NC(=O)[C@H](CC(N)=O)NC(=O)c1ccc2ccccc2n1)S(C)(=O)=O [Example 4],CC50 at 168 h,[1],28 nM
same,EC50,[2],64 nM
O=C(N[C@@H](Cc1ccccc1)[C@H](O)CN(C1CCCCC1)S(=O)(=O)c1ccccc1)OCc1ccccc1 [Example 5],CC50 at 168 h,[1],11 nM
same,EC50,[2],88 nM
CCC(C)[C@H](NC(=O)CN(C)C)C(=O)N[C@@H](Cc1ccccc1)[C@H](O)CN(CC(C)C)S(=O)(=O)c1ccc(OC)cc1 (stereo partly shown) [Example 13],EC50,[2],< 16 nM
CCC(C)[C@H](NC(=O)CNC)C(=O)N[C@@H](Cc1ccccc1)[C@H](O)CN(CCC(C)C)S(=O)(=O)c1ccccc1 (stereo partly shown) [Example 15],EC50,[2],38 nM
CC(C)CN(C[C@@H](O)[C@H](Cc1ccccc1)NC(=O)OCc1cccnc1)S(=O)(=O)c1ccc(Cl)cc1 [Example 18],EC50,[2],154 nM
CC(C)CN(C[C@@H](O)[C@H](Cc1ccccc1)NC(=O)OCc1cccnc1)S(=O)(=O)c1ccc([N+](=O)[O-])cc1 [Example 19],EC50,[2]; [4],377 nM
CC(C)CN(C[C@@H](O)[C@H](Cc1ccccc1)NC(=O)OCc1cccnc1)S(=O)(=O)c1ccc(O)cc1 [Example 20],EC50,[2]; [4],13 nM
COc1ccc(S(=O)(=O)N(CC(C)C)C[C@@H](O)[C@H](Cc2ccccc2)NC(=O)OCc2cncnc2)cc1 [Example 23],EC50,[2]; [4],8 nM
COc1ccc(S(=O)(=O)N(CC(C)C)C[C@@H](O)[C@H](Cc2ccccc2)NC(=O)c2ccncc2)cc1 [Example 33],EC50,[2],68 nM
COc1ccc(S(=O)(=O)N(CC(C)C)C[C@@H](O)[C@H](Cc2ccccc2)NC(=O)c2cccnc2)cc1 [Example 34],EC50,[2],188 nM
COc1ccc(S(=O)(=O)N(CC(C)C)C[C@@H](O)[C@H](Cc2ccccc2)NC(=O)c2cccc(N(C)C)c2C)cc1 [Example 36],EC50,[2]; [4],898 nM
Cc1ccccc1C(=O)N[C@@H](Cc1ccccc1)[C@H](O)CN(CC(C)C)S(=O)(=O)c1ccc(O)cc1 [Example 37],EC50,[2]; [4],< 20 nM
COc1ccc(S(=O)(=O)N(CC(C)C)C[C@@H](O)[C@H](Cc2ccccc2)NC(=O)OCc2ccc(N)nc2)cc1 [Example 38],EC50,[2]; [4],1100 nM
COc1ccc(S(=O)(=O)N(CC(C)C)C[C@@H](O)[C@H](Cc2ccccc2)NC(=O)OCc2ccc(O)nc2)cc1 [Example 39],EC50,[2]; [4],269 nM
CC(C)CN(C[C@@H](O)[C@H](Cc1ccccc1)NC(=O)OCc1cncnc1)S(=O)(=O)c1ccc(O)cc1 [Example 41],EC50,[2],11 nM
CC(C)CN(C[C@@H](O)[C@H](Cc1ccccc1)NC(=O)O[C@H]1CCSC1)S(=O)(=O)c1ccc(O)cc1 [Example 42],EC50,[2]; [4],< 20 nM
CC(C)CN(C[C@@H](O)[C@H](Cc1ccccc1)NC(=O)O[C@H]1CCS(=O)(=O)C1)S(=O)(=O)c1ccc(O)cc1 [Example 43],EC50,[2]; [4],63 nM
COc1ccc(S(=O)(=O)N(CC(C)C)C[C@@H](O)[C@H](Cc2ccccc2)NC(=O)O[C@H]2CCOC2)cc1 [Example 44],EC50,[2]; [4],8 nM
CC(C)CN(C[C@@H](O)[C@H](Cc1ccccc1)NC(=O)O[C@H]1CCOC1)S(=O)(=O)c1ccc(O)cc1 [Example 45],EC50,[2],5 nM
COc1ccc(S(=O)(=O)N(CC(C)C)C[C@@H](O)[C@H](Cc2ccccc2)NC(=O)O[C@H]2CCSC2)cc1 [Example 46],EC50,[2]; [4],< 20 nM
COc1ccc(S(=O)(=O)N(CC(C)C)C[C@@H](O)[C@H](Cc2ccccc2)NC(=O)c2cccc([N+](=O)[O-])c2C)cc1 [Example 48],EC50,[2]; [4],210 nM
COc1ccc(S(=O)(=O)N(CC(C)C)C[C@@H](O)[C@H](Cc2ccccc2)NC(=O)c2cccc(N)c2C)cc1 [Example 49],IC50,[3]; [5],6 nM
same,EC50,[2]; [4],< 20 nM
COc1ccc(S(=O)(=O)N(CC(C)C)C[C@@H](O)[C@H](Cc2ccccc2)NC(=O)c2ccc(N)cc2C)cc1 [Example 51],IC50,[3]; [5],9 nM
same,EC50,[2]; [4],< 20 nM
COc1ccc(S(=O)(=O)N(CC(C)C)C[C@@H](O)[C@H](Cc2ccccc2)NC(=O)c2ccc(N(C)C)cc2C)cc1 [Example 52],IC50,[3]; [5],> 100 nM
COc1ccc(S(=O)(=O)N(CC(C)C)C[C@@H](O)[C@H](Cc2ccccc2)NC(=O)c2cc(N)ccc2C)cc1 [Example 54],IC50,[3]; [5],10 nM
COc1ccc(S(=O)(=O)N(CC(C)C)C[C@@H](O)[C@H](Cc2ccccc2)NC(=O)OCc2cncs2)cc1 [Example 56],EC50,[2]; [4],40 nM
CC(C)CN(C[C@@H](O)[C@H](Cc1ccccc1)NC(=O)OCc1cncs1)S(=O)(=O)c1ccc(O)cc1 [Example 57],EC50,[2]; [4],< 20 nM
COc1ccc(S(=O)(=O)N(CC(C)C)C[C@@H](O)[C@H](Cc2ccccc2)NC(=O)OCc2ccoc2)cc1 [Example 58],EC50,[2]; [4],70 nM
COc1ccc(S(=O)(=O)N(CC(C)C)C[C@@H](O)[C@H](Cc2ccccc2)NC(=O)c2cccc(O)c2C)cc1 [Example 59],IC50,[3]; [5],3 nM
same,EC50,[2]; [4],22 nM
CC(C)CN(C[C@@H](O)[C@H](Cc1ccccc1)NC(=O)OCc1ccoc1)S(=O)(=O)c1ccc(N)cc1 [Example 60],EC50,[2]; [4],60 nM
CC(C)CN(C[C@@H](O)[C@H](Cc1ccccc1)NC(=O)OCc1cccnc1)S(=O)(=O)c1ccc2c(c1)OCO2 [Example 69],EC50,[2],68 nM
CC(C)CN(C[C@@H](O)[C@H](Cc1ccccc1)NC(=O)OCc1cncs1)S(=O)(=O)c1ccc2c(c1)OCO2 [Example 70],EC50,[2]; [4],30 nM
Cc1c(O)cccc1C(=O)N[C@@H](Cc1ccccc1)[C@H](O)CN(CC(C)C)S(=O)(=O)c1ccc2c(c1)OCO2 [Example 73],EC50,[2]; [4],22 nM
CC(C)CCN(C[C@@H](O)[C@H](Cc1ccccc1)NC(=O)C(NC(=O)OCc1ccccc1)C(C)(C)C)S(C)(=O)=O (stereo partly shown) [Table 3 Entry 1],IC50,[3]; [6],81 nM
CNCC(=O)NC(C(=O)N[C@@H](Cc1ccccc1)[C@H](O)CN(CCC(C)C)S(=O)(=O)c1ccccc1)C(C)(C)C (stereo partly shown) [Table 3 Entry 6],IC50,[3]; [6],1.8 nM
CC(C)CCN(C[C@@H](O)[C@H](Cc1ccccc1)NC(=O)C(NC(=O)CN(C)C)C(C)(C)C)S(=O)(=O)c1ccccc1 (stereo partly shown) [Table 3 Entry 8],IC50,[3]; [6],3 nM
COc1ccc(S(=O)(=O)N(CC(C)C)C[C@@H](O)[C@H](Cc2ccccc2)NC(=O)C(NC(=O)CN(C)C)C(C)(C)C)cc1 (stereo partly shown) [Table 3 Entry 10],IC50,[3]; [6],2.5 nM
COc1ccc(S(=O)(=O)N(CC(C)C)C[C@@H](O)[C@H](Cc2ccccc2)NC(=O)C2CCc3ccccc3C2)cc1 (stereo partly shown) [Table 5A Entry 4],IC50,[3],10 nM
COc1ccc(S(=O)(=O)N(CC(C)C)C[C@@H](O)[C@H](Cc2ccccc2)NC(=O)c2ccc(C)cc2C)cc1 [Table 5A Entry 6],IC50,[3],23 nM
COc1ccc(S(=O)(=O)N(CC(C)C)CC(O)C(Cc2ccccc2)NC(=O)c2cccnc2)cc1 (stereo not shown) [Table 5A Entry 9],IC50,[3]; [7],67 nM
COc1ccc(S(=O)(=O)N(CC(C)C)CC(O)C(Cc2ccccc2)NC(=O)c2ccncc2)cc1 (stereo not shown) [Table 5A Entry 11],IC50,[3]; [7],18 nM
COc1ccc(S(=O)(=O)N(CC(C)C)CC(O)C(Cc2ccccc2)NC(=O)c2ccccc2Cl)cc1 (stereo not shown) [Table 5A Entry 12],IC50,[3]; [7],6 nM
COc1ccc(S(=O)(=O)N(CC(C)C)CC(O)C(Cc2ccccc2)NC(=O)c2ccccc2C(C)C)cc1 (stereo not shown) [Table 5A Entry 14],IC50,[3]; [7],49 nM
COc1ccc(S(=O)(=O)N(CC(C)C)CC(O)C(Cc2ccccc2)NC(=O)c2ccccc2)cc1 (stereo not shown) [Table 5A Entry 25],IC50,[3]; [7],14 nM
COc1ccc(S(=O)(=O)N(CC(C)C)CC(O)C(Cc2ccccc2)NC(=O)c2ccc(C)cc2)cc1 (stereo not shown) [Table 5A Entry 28],IC50,[3]; [7],15 nM
COc1ccc(S(=O)(=O)N(CC(C)C)C[C@@H](O)[C@H](Cc2ccccc2)NC(=O)c2ccccc2OC)cc1 [Table 5A Entry 29],IC50,[3]; [7],190 nM
COc1ccc(S(=O)(=O)N(CC(C)C)C[C@@H](O)[C@H](Cc2ccccc2)NC(=O)c2cccc(OC)c2)cc1 [Table 5A Entry 30],IC50,[3],30 nM
